Test results: PubChem BioAssay (NCI)
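Tested at 5 concentrations; 48 h exposure; 96-well plates; endpoints linearly interpolated, else capped at highest concentration. GI50 marks 50% less growth. The concentration for full growth arrest is given as TGI.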

Assays:
Assay in all cases: DTP human tumour cell line panel, 48 h
[1] = system: 786-0 renal
[2] = system: A498 renal
[3] = system: A549 NSCLC
[4] = system: ACHN renal
[5] = system: BT-549 breast
[6] = system: CAKI-1 renal
[7] = system: COLO 205 colon
[8] = system: DU-145 prostate
[9] = system: EKVX NSCLC
[10] = system: HCC-2998 colon
[11] = system: HCT-116 colon
[12] = system: HCT-15 colon
[13] = system: HL-60(TB) leukemia
[14] = system: HOP-62 NSCLC
[15] = system: HOP-92 NSCLC
[16] = system: HS 578T breast
[17] = system: HT29 colon
[18] = system: IGROV1 ovarian
[19] = system: KM12 colon
[20] = system: LOX IMVI melanoma
[21] = system: M14 melanoma
[22] = system: MALME-3M melanoma
[23] = system: MCF7 breast
[24] = system: MDA-MB-231 breast
[25] = system: MDA-MB-435
[26] = system: MOLT-4 leukemia
[27] = system: NCI-H23 lung
[28] = system: NCI-H460 lung
[29] = system: NCI-H522 lung
[30] = system: NCI/ADR-RES ovarian
[31] = system: OVCAR-3 ovarian
[32] = system: OVCAR-4 ovarian
[33] = system: OVCAR-5 ovarian
[34] = system: OVCAR-8 ovarian
[35] = system: PC-3 prostate
[36] = system: RPMI-8226 leukemia
[37] = system: RXF 393 renal
[38] = system: SF-268 CNS
[39] = system: SF-295 CNS
[40] = system: SK-MEL-2 melanoma
[41] = system: SK-MEL-28 melanoma
[42] = system: SK-MEL-5 melanoma
[43] = system: SK-OV-3 ovarian
[44] = system: SN12C renal
[45] = system: SNB-19 CNS
[46] = system: SNB-75 CNS
[47] = system: SR leukemia
[48] = system: SW-620 colon
[49] = system: T-47D breast
[50] = system: TK-10 renal
[51] = system: U251 CNS
[52] = system: UACC-257 melanoma
[53] = system: UACC-62 melanoma
[54] = system: UO-31 renal
[55] = system: CCRF-CEM leukemia
[56] = system: K-562 leukemia
[57] = system: NCI-H226 lung
[58] = system: SF-539 CNS

Question: Which TGI [1] does the source give for `c1ccc(CSSSCc2ccccc2)cc1` here?
Answer: 12.8 µM

Question: What about the TGI [2] of the same compound?
Answer: > 100 µM

Question: And the TGI [3]?
Answer: > 100 µM

Question: And the TGI [4]?
Answer: 29.1 µM

Question: What about the TGI [5] of the same compound?
Answer: 19.8 µM

Question: What about the TGI [6] of the same compound?
Answer: 22.6 µM

Question: And the TGI [7]?
Answer: 11.6 µM

Question: And the TGI [8]?
Answer: 4.97 µM

Question: What about the TGI [9] of the same compound?
Answer: > 100 µM

Question: And the TGI [10]?
Answer: 17.8 µM

Question: And the TGI [11]?
Answer: 12.1 µM

Question: What about the TGI [12] of the same compound?
Answer: > 100 µM

Question: And the TGI [13]?
Answer: 3.22 µM

Question: What about the TGI [14] of the same compound?
Answer: 5.03 µM

Question: What about the TGI [15] of the same compound?
Answer: > 92.7 µM

Question: And the TGI [16]?
Answer: > 31 µM

Question: And the TGI [17]?
Answer: 19.6 µM

Question: What about the TGI [18] of the same compound?
Answer: > 90.9 µM

Question: And the TGI [19]?
Answer: > 100 µM

Question: What about the TGI [20] of the same compound?
Answer: 17.4 µM

Question: What about the TGI [21] of the same compound?
Answer: > 100 µM

Question: And the TGI [22]?
Answer: > 100 µM

Question: What about the TGI [23] of the same compound?
Answer: > 42.1 µM

Question: And the TGI [24]?
Answer: 23.7 µM

Question: And the TGI [25]?
Answer: 2.83 µM

Question: And the TGI [26]?
Answer: > 100 µM

Question: What about the TGI [27] of the same compound?
Answer: > 48.5 µM

Question: What about the TGI [28] of the same compound?
Answer: 16.2 µM

Question: What about the TGI [29] of the same compound?
Answer: 3.33 µM

Question: What about the TGI [30] of the same compound?
Answer: 9.78 µM

Question: And the TGI [31]?
Answer: 2.98 µM

Question: And the TGI [32]?
Answer: 38 µM

Question: And the TGI [33]?
Answer: 41.2 µM

Question: And the TGI [34]?
Answer: > 41.2 µM

Question: And the TGI [35]?
Answer: > 100 µM

Question: What about the TGI [36] of the same compound?
Answer: 10.8 µM

Question: What about the TGI [37] of the same compound?
Answer: 14.8 µM

Question: And the TGI [38]?
Answer: 31.4 µM

Question: What about the TGI [39] of the same compound?
Answer: 49.8 µM

Question: And the TGI [40]?
Answer: 8.36 µM

Question: And the TGI [41]?
Answer: > 100 µM

Question: And the TGI [42]?
Answer: 15.3 µM

Question: What about the TGI [43] of the same compound?
Answer: 22.9 µM

Question: And the TGI [44]?
Answer: 18 µM

Question: What about the TGI [45] of the same compound?
Answer: > 100 µM

Question: What about the TGI [46] of the same compound?
Answer: 39.4 µM

Question: And the TGI [47]?
Answer: 87.3 µM

Question: And the TGI [48]?
Answer: > 51.9 µM

Question: And the TGI [49]?
Answer: > 64.5 µM

Question: What about the TGI [50] of the same compound?
Answer: > 73.9 µM

Question: What about the TGI [51] of the same compound?
Answer: 17.1 µM

Question: And the TGI [52]?
Answer: > 95.4 µM

Question: What about the TGI [53] of the same compound?
Answer: 16.1 µM

Question: What about the TGI [54] of the same compound?
Answer: 37.1 µM

Question: What does the source list for `CC(=O)Nc1ccc2c(C3=C(c4cn(C)c5ccccc45)C(=O)NC3=O)cn(C)c2c1`?
Answer: GI50 [1]: 2.09 µM; TGI [1]: > 25 µM; GI50 [2]: 0.386 µM; TGI [2]: 12.8 µM; GI50 [3]: 1.05 µM; TGI [3]: > 25 µM; GI50 [4]: 1.42 µM; TGI [4]: > 25 µM; GI50 [5]: > 25 µM; TGI [5]: > 25 µM; GI50 [6]: 2.08 µM; TGI [6]: > 25 µM; GI50 [55]: 0.0773 µM; TGI [55]: > 25 µM; GI50 [7]: 0.691 µM; TGI [7]: 1.72 µM; GI50 [8]: 1.01 µM; TGI [8]: > 24.2 µM; GI50 [10]: 0.89 µM; TGI [10]: > 25 µM; GI50 [11]: 0.697 µM; TGI [11]: > 16.6 µM; GI50 [12]: 1.24 µM; TGI [12]: > 25 µM; GI50 [13]: 0.921 µM; TGI [13]: > 25 µM; GI50 [14]: 1.15 µM; TGI [14]: > 25 µM; GI50 [16]: 0.443 µM; TGI [16]: > 25 µM; GI50 [17]: 0.833 µM; TGI [17]: > 25 µM; GI50 [18]: 1.47 µM; TGI [18]: > 25 µM; GI50 [56]: 0.762 µM; TGI [56]: > 25 µM; GI50 [19]: 0.749 µM; TGI [19]: > 15 µM; GI50 [20]: 0.634 µM; TGI [20]: > 25 µM; GI50 [21]: 0.945 µM; TGI [21]: > 25 µM; GI50 [22]: > 25 µM; TGI [22]: > 25 µM; GI50 [23]: 0.294 µM; TGI [23]: > 25 µM; GI50 [24]: 0.821 µM; TGI [24]: > 25 µM; GI50 [25]: 0.118 µM; TGI [25]: 0.842 µM; GI50 [26]: 1.06 µM; TGI [26]: > 25 µM; GI50 [57]: > 6.26 µM; TGI [57]: > 25 µM; GI50 [27]: 1.16 µM; TGI [27]: > 25 µM; GI50 [28]: 0.881 µM; TGI [28]: > 25 µM; GI50 [29]: 0.218 µM; TGI [29]: 1.31 µM; GI50 [30]: 13.9 µM; TGI [30]: > 25 µM; GI50 [31]: 0.737 µM; TGI [31]: 3.1 µM; GI50 [32]: 1.28 µM; TGI [32]: > 25 µM; GI50 [34]: 0.9 µM; TGI [34]: > 25 µM; GI50 [35]: 0.802 µM; TGI [35]: > 25 µM; GI50 [36]: 1.11 µM; TGI [36]: > 25 µM; GI50 [37]: 0.512 µM; TGI [37]: > 7.02 µM; GI50 [38]: 1.36 µM; TGI [38]: > 25 µM; GI50 [39]: 0.552 µM; TGI [39]: > 5.63 µM; GI50 [58]: 0.376 µM; TGI [58]: 1.4 µM; GI50 [40]: 5.69 µM; TGI [40]: > 25 µM; GI50 [41]: > 5.94 µM; TGI [41]: > 25 µM; GI50 [42]: 0.637 µM; TGI [42]: 3.12 µM; GI50 [43]: 1.53 µM; TGI [43]: > 25 µM; GI50 [44]: 1.25 µM; TGI [44]: > 25 µM; GI50 [45]: 5.13 µM; TGI [45]: > 25 µM; GI50 [46]: 0.215 µM; TGI [46]: > 25 µM; GI50 [47]: 0.363 µM; TGI [47]: > 25 µM; GI50 [48]: 0.892 µM; TGI [48]: > 25 µM; GI50 [49]: > 25 µM; TGI [49]: > 25 µM; GI50 [50]: > 25 µM; TGI [50]: > 25 µM; GI50 [51]: 0.889 µM; TGI [51]: > 25 µM; GI50 [52]: > 14.9 µM; TGI [52]: > 25 µM; GI50 [53]: 1.3 µM; TGI [53]: > 25 µM; GI50 [54]: > 9.45 µM; TGI [54]: > 25 µM
